Source: ChEMBL document CHEMBL4312009, “Multigram scale synthesis of polycyclic lactones and evaluation of antitumor and other biological properties” (Eur J Med Chem, 2020)

Tests used:
[1] = test system: GTPase KRas (Homo sapiens), P01116 [UNDEFINED MUTATION]; assay: Inhibition of KRas mutant in human SW480 cells assessed as cell viability by measuring ATP at 0.2 uM relative to control; format: cell-based
[2] = test system: GTPase KRas (Homo sapiens), P01116 [UNDEFINED MUTATION]; assay: Inhibition of KRas mutant in human SW480 cells assessed as cell viability by measuring ATP at 2 uM relative to control; format: cell-based
[3] = test system: GTPase KRas (Homo sapiens), P01116 [UNDEFINED MUTATION]; assay: Inhibition of KRas mutant in human SW480 cells assessed as cell viability by measuring ATP at 20 uM relative to control; format: cell-based
[4] = test system: GTPase KRas (Homo sapiens), P01116 [UNDEFINED MUTATION]; assay: Inhibition of KRas mutant in human DLD1 cells assessed as cell viability by measuring ATP at 0.2 uM relative to control; format: cell-based
[5] = test system: GTPase KRas (Homo sapiens), P01116 [UNDEFINED MUTATION]; assay: Inhibition of KRas mutant in human DLD1 cells assessed as cell viability by measuring ATP at 2 uM relative to control; format: cell-based
[6] = test system: GTPase KRas (Homo sapiens), P01116 [UNDEFINED MUTATION]; assay: Inhibition of KRas mutant in human DLD1 cells assessed as cell viability by measuring ATP at 20 uM relative to control; format: cell-based
[7] = test system: GTPase KRas (Homo sapiens), P01116 [UNDEFINED MUTATION]; assay: Inhibition of KRas mutant in human HCT116 cells assessed as cell viability by measuring ATP at 0.2 uM relative to control; format: cell-based
[8] = test system: GTPase KRas (Homo sapiens), P01116 [UNDEFINED MUTATION]; assay: Inhibition of KRas mutant in human HCT116 cells assessed as cell viability by measuring ATP at 2 uM relative to control; format: cell-based
[9] = test system: GTPase KRas (Homo sapiens), P01116 [UNDEFINED MUTATION]; assay: Inhibition of KRas mutant in human HCT116 cells assessed as cell viability by measuring ATP at 20 uM relative to control; format: cell-based
[10] = test system: GTPase KRas (Homo sapiens), P01116 [UNDEFINED MUTATION]; assay: Inhibition of KRas mutant in human HCT116 cells […] assessed as cell viability by measuring ATP at 0.2 uM relative to control; format: cell-based
[11] = test system: GTPase KRas (Homo sapiens), P01116 [UNDEFINED MUTATION]; assay: Inhibition of KRas mutant in human HCT116 cells […] assessed as cell viability by measuring ATP at 2 uM relative to control; format: cell-based
[12] = test system: GTPase KRas (Homo sapiens), P01116 [UNDEFINED MUTATION]; assay: Inhibition of KRas mutant in human HCT116 cells […] assessed as cell viability by measuring ATP at 20 uM relative to control; format: cell-based
[13] = test system: GTPase KRas (Homo sapiens), P01116 [UNDEFINED MUTATION]; assay: Inhibition of KRas mutant in human SW480 cells assessed as cell viability by measuring ATP; format: cell-based
[14] = test system: GTPase KRas (Homo sapiens), P01116 [UNDEFINED MUTATION]; assay: Inhibition of KRas mutant in human DLD1 cells assessed as cell viability by measuring ATP; format: cell-based
[15] = test system: GTPase KRas (Homo sapiens), P01116 [UNDEFINED MUTATION]; assay: Inhibition of KRas mutant in human HCT116 cells assessed as cell viability by measuring ATP; format: cell-based
[16] = test system: GTPase KRas (Homo sapiens), P01116 [UNDEFINED MUTATION]; assay: Inhibition of KRas mutant in human HCT116 cells […] assessed as cell viability by measuring ATP; format: cell-based
HeLa [17] = assay: Cell cycle arrest in human HeLa cells assessed as effect on 2N stage incubated for 21 hrs by propidium iodide based flow cytometry; format: functional
HeLa [18] = assay: Cell cycle arrest in human HeLa cells assessed as effect on 4N stage incubated for 21 hrs by propidium iodide based flow cytometry; format: functional
HeLa [19] = assay: Cell cycle arrest in human HeLa cells assessed as effect on mitotic index incubated for 21 hrs by propidium iodide based flow cytometry; format: functional
HeLa [20] = assay: Cell cycle arrest in human HeLa cells incubated for 21 hrs by propidium iodide based flow cytometry; format: functional
HeLa [21] = assay: Cell cycle arrest in human HeLa cells assessed as effect on G1 phase incubated for 21 hrs by propidium iodide based flow cytometry; format: functional
HeLa [22] = assay: Cell cycle arrest in human HeLa cells assessed as effect on S phase incubated for 21 hrs by propidium iodide based flow cytometry; format: functional
[23] = Activation of wnt pathway in mouse C2C12 cells assessed as increase in alkaline phosphatase activity; format: cell-based
[24] = Activation of wnt pathway in mouse C2C12 cells assessed as increase in beta-catenin activity; format: cell-based
[25] = biological target: Microtubule-associated protein tau (Homo sapiens) (UniProt P10636); assay: Inhibition of human Tau at 40 uM relative to control
Chain of Microtubule-associated protein tau (Homo sapiens) (P10636 whole entry): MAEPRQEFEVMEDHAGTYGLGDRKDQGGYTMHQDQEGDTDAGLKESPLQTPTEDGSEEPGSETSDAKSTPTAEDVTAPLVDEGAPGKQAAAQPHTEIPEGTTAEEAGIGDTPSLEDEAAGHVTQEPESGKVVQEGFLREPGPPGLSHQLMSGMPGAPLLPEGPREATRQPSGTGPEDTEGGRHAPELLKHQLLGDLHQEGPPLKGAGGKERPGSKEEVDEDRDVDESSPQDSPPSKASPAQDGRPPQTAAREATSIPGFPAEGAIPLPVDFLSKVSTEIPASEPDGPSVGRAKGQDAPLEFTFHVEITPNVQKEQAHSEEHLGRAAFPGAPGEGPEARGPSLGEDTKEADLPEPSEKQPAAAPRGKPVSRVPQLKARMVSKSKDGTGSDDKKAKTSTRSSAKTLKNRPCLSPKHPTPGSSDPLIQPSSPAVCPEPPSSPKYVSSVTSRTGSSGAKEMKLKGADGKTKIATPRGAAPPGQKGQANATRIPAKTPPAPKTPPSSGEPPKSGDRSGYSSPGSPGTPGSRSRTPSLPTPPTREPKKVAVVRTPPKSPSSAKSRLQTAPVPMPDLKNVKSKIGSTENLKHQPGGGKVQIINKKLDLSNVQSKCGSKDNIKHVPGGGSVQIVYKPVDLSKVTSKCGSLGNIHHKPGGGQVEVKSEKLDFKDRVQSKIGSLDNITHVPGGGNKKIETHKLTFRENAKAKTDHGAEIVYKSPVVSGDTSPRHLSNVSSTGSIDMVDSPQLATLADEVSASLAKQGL

[26] = biological target: T1, Angiopoietin-like protein 8 (Homo sapiens) (UniProt Q6UXH0); assay: Inhibition of human Angptl8 at 40 uM relative to control
T1 sequence (whole entry): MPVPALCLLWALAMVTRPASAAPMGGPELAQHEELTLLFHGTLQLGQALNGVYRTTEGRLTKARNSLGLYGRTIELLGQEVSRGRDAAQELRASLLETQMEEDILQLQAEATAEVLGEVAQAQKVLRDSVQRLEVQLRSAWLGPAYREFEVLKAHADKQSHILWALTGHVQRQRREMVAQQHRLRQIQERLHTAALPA

[27] = biological target: Apolipoprotein C-III (Homo sapiens) (UniProt P02656); assay: Inhibition of human APOC3 at 40 uM relative to control
Chain of Apolipoprotein C-III (Homo sapiens) (P02656 whole entry): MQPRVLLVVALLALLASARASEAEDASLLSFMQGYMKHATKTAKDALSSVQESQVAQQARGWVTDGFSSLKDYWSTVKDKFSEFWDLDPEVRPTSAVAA

[28] = biological target: Proprotein convertase subtilisin/kexin type 9 (Homo sapiens) (UniProt Q8NBP7); assay: Inhibition of human PCSK9 at 40 uM relative to control
Chain of Proprotein convertase subtilisin/kexin type 9 (Homo sapiens) (Q8NBP7 31-152 limits assumed): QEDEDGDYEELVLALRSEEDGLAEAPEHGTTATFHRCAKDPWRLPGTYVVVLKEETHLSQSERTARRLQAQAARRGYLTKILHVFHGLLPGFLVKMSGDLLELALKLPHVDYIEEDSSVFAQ
Chain of Proprotein convertase subtilisin/kexin type 9 (Homo sapiens) (Q8NBP7 153-692 limits assumed): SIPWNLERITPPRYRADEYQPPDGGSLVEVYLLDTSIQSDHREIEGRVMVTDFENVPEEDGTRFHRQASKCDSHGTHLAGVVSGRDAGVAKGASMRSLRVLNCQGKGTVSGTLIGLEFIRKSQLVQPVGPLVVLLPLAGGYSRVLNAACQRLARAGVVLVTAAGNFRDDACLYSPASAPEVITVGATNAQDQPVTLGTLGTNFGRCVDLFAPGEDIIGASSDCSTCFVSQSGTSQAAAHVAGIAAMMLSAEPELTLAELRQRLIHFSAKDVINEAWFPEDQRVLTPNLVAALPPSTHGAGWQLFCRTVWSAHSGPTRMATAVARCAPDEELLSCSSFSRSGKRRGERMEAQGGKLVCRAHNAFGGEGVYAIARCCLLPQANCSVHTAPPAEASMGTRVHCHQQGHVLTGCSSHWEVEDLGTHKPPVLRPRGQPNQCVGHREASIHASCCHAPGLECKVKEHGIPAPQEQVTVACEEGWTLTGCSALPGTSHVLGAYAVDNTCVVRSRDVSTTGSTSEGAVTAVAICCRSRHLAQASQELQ

HT-29 [29] = assay: Antiproliferative activity against human HT-29 cells assessed as reduction in cell viability incubated for 24 hrs by MTT assay; format: functional, cell-based; details: HT-29, 24 h
HT-29 [30] = assay: Antiproliferative activity against human HT-29 cells assessed as reduction in cell viability incubated for 24 hrs in hypoxia condition by MTT assay; format: functional, cell-based; details: HT-29, 24 h
HT-29 [31] = assay: Selectivity index, ratio of IC50 of antiproliferative activity against human HT-29 cells in normoxia to IC50 of antiproliferative activity against human HT-29 cells in hypoxia condition; format: functional
CHO = assay: Cytotoxicity against CHO cells assessed as reduction in cell viability; format: cell-based; details: Cricetulus griseus
CYP1A1 = assay: Selectivity index, ratio of IC50 of cytotoxicity against CHO cells to IC50 for bioactivation in CYP1A1 (unknown origin) transfected CHO cells assessed as CYP1A1-mediated drug activation by measuring reduction in cell viability; format: cell-based; details: hamster, CHO cells and CYP1A1-transfected CHO cells; read-out: Ratio IC50
[32] = biological target: Sodium channel protein type 9 subunit alpha (Homo sapiens) (UniProt Q15858); assay: Inhibition of human Nav1.7 at 40 uM relative to control
Chain of Sodium channel protein type 9 subunit alpha (Homo sapiens) (Q15858 whole entry, looked up): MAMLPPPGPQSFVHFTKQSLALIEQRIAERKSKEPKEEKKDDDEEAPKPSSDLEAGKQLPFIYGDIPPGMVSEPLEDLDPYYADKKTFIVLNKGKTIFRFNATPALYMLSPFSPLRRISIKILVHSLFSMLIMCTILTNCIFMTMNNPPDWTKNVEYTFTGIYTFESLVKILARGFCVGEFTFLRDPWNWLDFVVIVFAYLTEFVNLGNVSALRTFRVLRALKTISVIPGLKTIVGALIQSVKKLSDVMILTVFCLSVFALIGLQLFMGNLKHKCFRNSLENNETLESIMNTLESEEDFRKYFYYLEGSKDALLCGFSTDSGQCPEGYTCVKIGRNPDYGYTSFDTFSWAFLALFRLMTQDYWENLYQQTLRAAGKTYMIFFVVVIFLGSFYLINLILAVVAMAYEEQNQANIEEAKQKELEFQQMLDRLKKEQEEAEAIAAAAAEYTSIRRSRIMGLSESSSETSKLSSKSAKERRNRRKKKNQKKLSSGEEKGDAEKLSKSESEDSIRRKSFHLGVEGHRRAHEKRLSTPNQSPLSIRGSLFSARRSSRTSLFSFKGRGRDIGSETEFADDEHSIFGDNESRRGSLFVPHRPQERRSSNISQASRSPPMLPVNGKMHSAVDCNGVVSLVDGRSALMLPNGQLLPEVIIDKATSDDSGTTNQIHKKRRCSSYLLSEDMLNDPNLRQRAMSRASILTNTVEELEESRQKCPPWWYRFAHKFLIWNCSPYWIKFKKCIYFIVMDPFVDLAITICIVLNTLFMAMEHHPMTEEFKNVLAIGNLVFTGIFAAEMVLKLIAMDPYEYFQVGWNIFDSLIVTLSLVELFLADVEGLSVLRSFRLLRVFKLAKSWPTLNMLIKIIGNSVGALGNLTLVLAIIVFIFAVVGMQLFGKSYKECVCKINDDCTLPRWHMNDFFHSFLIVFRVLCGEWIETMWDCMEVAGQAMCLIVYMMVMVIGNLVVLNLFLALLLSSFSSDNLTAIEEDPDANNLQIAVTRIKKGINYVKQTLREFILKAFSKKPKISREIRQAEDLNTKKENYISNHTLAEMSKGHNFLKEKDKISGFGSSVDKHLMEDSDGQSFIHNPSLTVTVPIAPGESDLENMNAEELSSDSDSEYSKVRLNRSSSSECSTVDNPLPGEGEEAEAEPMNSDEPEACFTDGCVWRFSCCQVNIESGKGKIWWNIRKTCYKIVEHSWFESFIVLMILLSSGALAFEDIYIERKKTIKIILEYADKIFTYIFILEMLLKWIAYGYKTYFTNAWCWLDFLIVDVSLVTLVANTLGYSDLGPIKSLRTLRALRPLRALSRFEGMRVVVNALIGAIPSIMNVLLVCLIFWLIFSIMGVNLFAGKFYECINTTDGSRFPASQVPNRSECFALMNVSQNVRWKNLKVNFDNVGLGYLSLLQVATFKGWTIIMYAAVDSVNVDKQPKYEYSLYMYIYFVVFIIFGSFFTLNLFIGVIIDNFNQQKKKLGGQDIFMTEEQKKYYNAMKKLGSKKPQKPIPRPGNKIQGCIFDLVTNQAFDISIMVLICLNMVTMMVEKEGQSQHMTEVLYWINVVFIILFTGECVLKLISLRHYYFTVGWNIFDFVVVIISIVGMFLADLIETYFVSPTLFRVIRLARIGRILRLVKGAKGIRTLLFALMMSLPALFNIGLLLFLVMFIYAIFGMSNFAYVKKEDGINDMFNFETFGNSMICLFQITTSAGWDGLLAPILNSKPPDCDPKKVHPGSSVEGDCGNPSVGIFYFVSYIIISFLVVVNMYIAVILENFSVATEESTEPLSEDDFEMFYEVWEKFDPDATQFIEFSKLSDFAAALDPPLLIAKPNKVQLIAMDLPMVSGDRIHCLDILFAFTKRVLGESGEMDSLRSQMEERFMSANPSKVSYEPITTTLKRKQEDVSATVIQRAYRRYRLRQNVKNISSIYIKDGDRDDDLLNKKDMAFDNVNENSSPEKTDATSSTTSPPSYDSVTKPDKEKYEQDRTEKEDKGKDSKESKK

Chain of GTPase KRas (Homo sapiens), P01116 [UNDEFINED MUTATION] (P01116 whole entry, looked up, change not shown): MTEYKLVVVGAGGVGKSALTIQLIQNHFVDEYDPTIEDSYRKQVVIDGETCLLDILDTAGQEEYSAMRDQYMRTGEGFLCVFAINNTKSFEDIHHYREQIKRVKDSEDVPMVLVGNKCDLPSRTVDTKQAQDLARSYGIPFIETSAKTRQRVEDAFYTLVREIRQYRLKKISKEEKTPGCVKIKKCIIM

| Structure (SMILES) | IC50 (HeLa [17]) [µM] | EC50 (HeLa [18]) [µM] | EC50 (HeLa [19]) [µM] | EC50 (HeLa [21]) [µM] | inhibition [25] [%] | inhibition [26] [%] | inhibition [27] [%] | inhibition [28] [%] | inhibition [1] [%] | inhibition [2] [%] | inhibition [3] [%] | inhibition [4] [%] | inhibition [5] [%] | inhibition [6] [%] | inhibition [7] [%] | inhibition [8] [%] | inhibition [9] [%] | inhibition [10] [%] | inhibition [11] [%] | inhibition [12] [%] | also measured |
| --- | --- | --- | --- | --- | --- | --- | --- | --- | --- | --- | --- | --- | --- | --- | --- | --- | --- | --- | --- | --- | --- |
| CCCCCc1c2c(c(C)c3c1Oc1ccccc1O3)C(=O)OC2 | – | – | – | – | – | – | – | – | 11 | 21 | 40 | – | 17 | 40 | -9 | 12 | 35 | 44 | 28 | 31 | – |
| CCCCCCc1c2c(c(C)c3c1C(=O)SC3)Oc1ccccc1O2 | > 10 | > 10 | > 10 | > 10 | 20 | 31 | 21 | 30 | 13 | 9 | 22 | -9 | 7 | 90 | – | 10 | 40 | – | -4 | 18 | IC50 (HeLa [20]): > 10 µM; IC50 (HeLa [22]): > 10 µM; EC50 [23]: > 10 µM; EC50 [24]: > 10 µM; inhibition [32]: -10% |
| CCCCCc1c2c(c(C)c3c1C(=O)OC3)Oc1ccc(OC)cc1O2 | > 10 | > 10 | > 10 | > 10 | 60 | 59 | 38 | 42 | 15 | 16 | 19 | – | 16 | 73 | – | 7.9 | 40 | 52 | 8 | 6 | IC50 (HeLa [22]): > 10 µM; EC50 [23]: > 10 µM; EC50 [24]: > 10 µM; inhibition [32]: 22% |

The next lines start with results.

| IC50 (HeLa [17]) [µM] | EC50 (HeLa [18]) [µM] | EC50 (HeLa [19]) [µM] | EC50 (HeLa [21]) [µM] | inhibition [25] [%] | inhibition [26] [%] | inhibition [27] [%] | inhibition [28] [%] | Structure (SMILES) | inhibition [1] [%] | inhibition [2] [%] | inhibition [3] [%] | inhibition [4] [%] | inhibition [5] [%] | inhibition [6] [%] | inhibition [7] [%] | inhibition [8] [%] | inhibition [9] [%] | inhibition [10] [%] | inhibition [11] [%] | inhibition [12] [%] | also measured |
| --- | --- | --- | --- | --- | --- | --- | --- | --- | --- | --- | --- | --- | --- | --- | --- | --- | --- | --- | --- | --- | --- |
| 2.1 | 2 | > 10 | > 10 | 77 | 86 | 75 | 75 | CCCCCCc1c2c(c(C)c3c1C(=O)OC3)Oc1ccccc1O2 | 21 | 58 | 86 | 14 | 50 | 112 | 12 | 60 | 91 | 52 | 69 | 62 | inhibition [13]: Dose-dependent effect; inhibition [14]: Dose-dependent effect; inhibition [15]: Dose-dependent effect; inhibition [16]: Dose-dependent effect; IC50 (HeLa [20]): 1.8 µM; IC50 (HeLa [22]): > 10 µM; EC50 [23]: 7.6 µM; EC50 [24]: > 20 µM; IC50 (HT-29 [29]): 1.33 µM; IC50 (HT-29 [30]): 8.93 µM; Ratio IC50 (HT-29 [31]): 0.15; IC50 (CHO): 1.52 µM; selectivity ratio (CYP1A1): 0.6 |
| – | – | – | – | 35 | 37 | 17 | 40 | Cc1c2c(c(CCCCBr)c3c1C(=O)OC3)Oc1ccccc1O2 | – | 4.4 | 55 | 0.4 | 0.4 | 20 | 2 | 9.5 | 108 | 12 | 20 | 28 | – |
| – | – | – | – | 8 | 15 | 34 | 15 | CCCCc1c2c(c(C)c3c1Oc1ccccc1O3)C(=O)OC2 | 12 | 14 | 14 | – | 6 | 41 | 39 | 7 | 38 | – | 0.4 | 2 | – |
| – | – | – | – | 11 | 24 | 17 | -7 | CCCCCCc1c2c(c(C)c3c1Oc1ccccc1O3)C(=O)OC2 | 16 | 18 | 12 | 29 | 49 | – | -3 | 7 | 15 | 26 | 10 | 2 | inhibition [32]: -9% |
